Assays:
[1] = target: T1, MERTK (Homo sapiens, UniProt Q12866); assay: TR-FRET kinase activity assay, MERTK; assay type: biochemical; conditions: for IC50: TR-FRET activity assay, ATP at Km, 60 minutes, read-out: Mer IC50
T1 sequence (Q12866 21-999): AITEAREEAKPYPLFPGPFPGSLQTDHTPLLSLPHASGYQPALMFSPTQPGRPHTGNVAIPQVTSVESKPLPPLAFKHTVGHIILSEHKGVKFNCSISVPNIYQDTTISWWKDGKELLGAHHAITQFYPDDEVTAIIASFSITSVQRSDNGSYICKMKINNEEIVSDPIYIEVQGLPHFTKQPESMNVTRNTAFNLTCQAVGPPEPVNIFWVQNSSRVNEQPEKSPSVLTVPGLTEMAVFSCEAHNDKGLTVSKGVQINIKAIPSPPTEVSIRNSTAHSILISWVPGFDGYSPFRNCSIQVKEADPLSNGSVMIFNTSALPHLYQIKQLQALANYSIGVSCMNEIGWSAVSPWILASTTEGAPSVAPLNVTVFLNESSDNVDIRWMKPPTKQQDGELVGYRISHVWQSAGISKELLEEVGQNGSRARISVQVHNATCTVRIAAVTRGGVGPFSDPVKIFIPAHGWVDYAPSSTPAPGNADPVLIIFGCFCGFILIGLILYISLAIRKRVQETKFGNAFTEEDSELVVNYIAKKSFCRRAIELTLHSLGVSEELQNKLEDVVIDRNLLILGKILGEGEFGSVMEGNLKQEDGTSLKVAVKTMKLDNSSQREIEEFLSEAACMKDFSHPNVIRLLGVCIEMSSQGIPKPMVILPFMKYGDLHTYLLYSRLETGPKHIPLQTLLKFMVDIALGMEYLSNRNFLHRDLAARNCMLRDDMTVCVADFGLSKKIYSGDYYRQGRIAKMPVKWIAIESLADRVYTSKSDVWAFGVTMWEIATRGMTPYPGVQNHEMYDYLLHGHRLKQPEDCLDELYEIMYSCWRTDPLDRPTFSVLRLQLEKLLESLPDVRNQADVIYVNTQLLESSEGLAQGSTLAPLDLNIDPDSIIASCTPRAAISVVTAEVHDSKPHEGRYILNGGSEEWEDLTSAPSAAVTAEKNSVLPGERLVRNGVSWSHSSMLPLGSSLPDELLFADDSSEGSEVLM
In short: (§1)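 Inhibition is measured as loss of phospho-peptide formation: kinase, fluorescent tyrosine peptide and compound are combined, ATP is added at Km, and the reaction proceeds 60 min at RT in pH 7.5 HEPES buffer. An EDTA stop and Eu-labelled phospho-specific antibody allow TR-FRET detection for IC50 fitting.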

[2] = target: T2, TYRO3 (Homo sapiens, UniProt Q06418); assay: TR-FRET kinase activity assay, TYRO3; assay type: biochemical; conditions: ATP at Km, 60 minutes
T2 sequence (Q06418 41-890): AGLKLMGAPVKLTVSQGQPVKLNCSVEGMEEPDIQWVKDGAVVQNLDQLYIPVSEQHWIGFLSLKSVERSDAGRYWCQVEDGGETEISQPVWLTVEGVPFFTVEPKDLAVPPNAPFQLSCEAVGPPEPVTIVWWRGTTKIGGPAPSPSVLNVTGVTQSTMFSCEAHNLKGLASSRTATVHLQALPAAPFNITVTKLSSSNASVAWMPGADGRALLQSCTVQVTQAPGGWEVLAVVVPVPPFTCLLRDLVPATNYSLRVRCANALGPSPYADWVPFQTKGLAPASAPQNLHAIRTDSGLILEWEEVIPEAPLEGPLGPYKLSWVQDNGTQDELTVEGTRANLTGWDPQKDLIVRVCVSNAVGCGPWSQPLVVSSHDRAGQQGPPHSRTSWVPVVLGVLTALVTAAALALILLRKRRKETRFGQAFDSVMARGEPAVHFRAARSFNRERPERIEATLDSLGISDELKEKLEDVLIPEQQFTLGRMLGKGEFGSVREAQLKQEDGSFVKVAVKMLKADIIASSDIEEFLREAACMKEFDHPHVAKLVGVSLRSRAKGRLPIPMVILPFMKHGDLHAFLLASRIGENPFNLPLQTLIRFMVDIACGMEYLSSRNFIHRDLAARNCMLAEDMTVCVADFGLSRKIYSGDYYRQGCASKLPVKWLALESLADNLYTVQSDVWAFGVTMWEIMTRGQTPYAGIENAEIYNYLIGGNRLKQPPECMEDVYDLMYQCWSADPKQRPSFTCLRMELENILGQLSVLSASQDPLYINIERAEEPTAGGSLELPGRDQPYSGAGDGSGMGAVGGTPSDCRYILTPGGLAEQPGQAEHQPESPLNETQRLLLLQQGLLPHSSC
In short: as §1

[3] = ratio of Mer to FLT3: FLT3 IC50/Mer IC50
[4] = ratio calculated as FLT3 IC50/Mer IC50

Row | SMILES | IC50 [1] | FLT3/Mer ratio (FLT3 IC50/Mer IC50) [1, 3] | IC50 [2] | FLT3/Mer ratio (FLT3 IC50/Mer IC50) [1, 4]
1 | CC1(Nc2ncc3c(-c4cnn(C5COC5)c4)cc(C4CCC(O)CC4)n3n2)COC1 (stereo not drawn) [Compound 399] | ≤ 0.1 µM | – | ≤ 0.1 µM | +++ (“+++” represents a ratio of >100)
2 | COC[C@H](C)Nc1ncc2c(-c3ccnc(O[C@H]4CCN(C)C4)c3)cc([C@H]3CC[C@H](O)CC3)n2n1 [Compound 400] | ≤ 0.1 µM | – | ≤ 0.1 µM | +++ (“+++” represents a ratio of >100)
3 | COC[C@H](C)Nc1ncc2c(-c3ccnc(O[C@@H]4CCNC4)c3)cc([C@H]3CC[C@H](O)CC3)n2n1 [Compound 401] | ≤ 0.1 µM | – | ≤ 0.1 µM | +++ (“+++” represents a ratio of >100)
4 | COC[C@H](C)Nc1ncc2c(-c3ccnc(O[C@@H]4CCN(C)C4)c3)cc([C@H]3CC[C@H](O)CC3)n2n1 [Compound 402] | ≤ 0.1 µM | – | ≤ 0.1 µM | +++ (“+++” represents a ratio of >100)
5 | COC[C@H](C)Nc1ncc2c(-c3ccnc(O[C@H]4CCCN(C)C4)c3)cc([C@H]3CC[C@H](O)CC3)n2n1 [Compound 403] | ≤ 0.1 µM | – | ≤ 0.1 µM | +++ (“+++” represents a ratio of >100)
6 | COC[C@H](C)Nc1ncc2c(-c3ccnc(O[C@@H]4CCCN(C)C4)c3)cc([C@H]3CC[C@H](O)CC3)n2n1 [Compound 404] | ≤ 0.1 µM | – | ≤ 0.1 µM | +++ (“+++” represents a ratio of >100)
7 | COC[C@H](C)Nc1ncc2c(-c3cnn(C4COC4)c3)cc(C3CCC(=O)CC3)n2n1 [Compound 406] | ≤ 0.1 µM | – | ≤ 0.1 µM | +++ (“+++” represents a ratio of >100)

Next, values leading:

Row | IC50 [1] | FLT3/Mer ratio (FLT3 IC50/Mer IC50) [1, 3] | IC50 [2] | FLT3/Mer ratio (FLT3 IC50/Mer IC50) [1, 4] | SMILES
8 | ≤ 0.1 µM | +++ (“+++” represents a ratio of >100) | ≤ 0.1 µM | – | CC(COC(F)F)Nc1ncc2c(-c3cnn(C(C)(C)C(=O)N4CCOCC4)c3)cc(C3CCC(O)CC3)n2n1 (stereo not drawn) [Compound 393]
9 | ≤ 0.1 µM | +++ (“+++” represents a ratio of >100) | ≤ 0.1 µM | – | COC[C@H](C)Nc1ncc2c(-c3cnn(C4CCN(C)C4=O)c3)cc([C@H]3CC[C@H](O)CC3)n2n1 (stereo partly drawn) [Compound 394, 3-(4-(7-((trans)-4-hydroxycyclohexyl)-2-(((S)-1-methoxypropan-2-yl)amino)pyrrolo[2,1-f][1,2,4]triazin-5-yl)-1H-pyrazol-1-yl)-1-methylpyrrolidin-2-one]
10 | ≤ 0.1 µM | +++ (“+++” represents a ratio of >100) | ≤ 0.1 µM | – | COC[C@H](C)Nc1ncc2c(-c3cnn(CC4CC(=O)N(C)C4)c3)cc([C@H]3CC[C@H](O)CC3)n2n1 (stereo partly drawn) [Compound 395]
11 | ≤ 0.1 µM | – | ≤ 0.1 µM | +++ (“+++” represents a ratio of >100) | COC[C@H](C)Nc1ncc2c(-c3cnn([C@@H]4CCN(C(C)=O)C4)c3)cc([C@H]3CC[C@H](O)CC3)n2n1 [Compound 396]
12 | ≤ 0.1 µM | – | ≤ 0.1 µM | +++ (“+++” represents a ratio of >100) | COC[C@H](C)Nc1ncc2c(-c3cnn([C@H]4CCN(C(C)=O)C4)c3)cc([C@H]3CC[C@H](O)CC3)n2n1 [Compound 397]
13 | ≤ 0.1 µM | – | ≤ 0.1 µM | +++ (“+++” represents a ratio of >100) | CNC(=O)c1cncc(-c2cc([C@H]3CC[C@H](O)CC3)n3nc(N[C@@H](C)COC(F)F)ncc23)c1 [Compound 398]
14 | ≤ 0.1 µM | – | ≤ 0.1 µM | +++ (“+++” represents a ratio of >100) | C[C@@H](COC(F)F)Nc1ncc2c(-c3ccnc(N4CCOCC4)c3)cc([C@H]3CC[C@H](O)CC3)n2n1 [Compound 405]
15 | ≤ 0.1 µM | – | ≤ 0.1 µM | +++ (“+++” represents a ratio of >100) | CNC(=O)c1ncc(-c2cc([C@H]3CC[C@H](O)CC3)n3nc(N[C@@H](C)COC(F)F)ncc23)cn1 [Compound 407]
